In US20250026724A1, “(1,4,5-TRISUBSTITUTED 1H-PYRAZOL-3-YL)OXY-2-ALKYLTHIOALKYL ACIDS AND -ALKYL ACID DERIVATIVES, SALTS THEREOF AND USE THEREOF AS ACTIVE HERBICIDAL INGREDIENTS” (BAYER AKTIENGESELLSCHAFT, priority 2021, published 2025):

Columns and labels:
Assay type in all cases: in vivo
[1] = test system: Bassia scoparia (KCHSC); assay: Post-emergence herbicidal action, greenhouse pot trial
Method in brief: (§1)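 Using WP or EC formulations applied at the one-leaf stage, compounds were sprayed onto weeds at 320 g/ha or lower. Percent activity was estimated visually about three weeks later, with dead plants scored 100% and control-like plants 0%.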

[2] = test system: Matricaria inodora (MATIN); assay: as above; conditions: visual rating after about 3 weeks; for pest or weed control at 80 g/ha / pest or weed control at 320 g/ha: Tripleurospermum inodorum, 504 h; for pest or weed control at 80 g/ha: read-out: Post-emergence effect at 80 g/ha against MATIN in %; for pest or weed control at 320 g/ha: read-out: Post-emergence effect at 320 g/ha against MATIN in %
Method in brief: as §1

[3] = test system: Echinochloa crus-galli (ECHCG); assay: as above; conditions: visual rating after about 3 weeks; for pest or weed control at 320 g/ha: read-out: Post-emergence effect at 320 g/ha against ECHCG in %
Method in brief: as §1

[4] = test system: Polygonum convolvulus (POLCO); assay: as above; conditions: visual rating after about 3 weeks; for pest or weed control at 80 g/ha / pest or weed control at 320 g/ha: Fallopia convolvulus, 504 h; for pest or weed control at 80 g/ha: read-out: Post-emergence effect at 80 g/ha against POLCO in %; for pest or weed control at 320 g/ha: read-out: Post-emergence effect at 320 g/ha against POLCO in %
Method in brief: as §1

[5] = test system: Avena fatua (AVEFA); assay: as above; conditions: 320 g/ha, visual rating after about 3 weeks; for pest or weed control at 320 g/ha: Avena fatua, 504 h, read-out: Post-emergence effect at 320 g/ha against AVEFA in %
Method in brief: as §1

[6] = test system: Alopecurus myosuroides (ALOMY); assay: as above; conditions: 320 g/ha, visual rating after about 3 weeks
Method in brief: as §1

[7] = test system: Amaranthus retroflexus (AMARE); assay: as above; conditions: visual rating after about 3 weeks; for pest or weed control at 80 g/ha / pest or weed control at 320 g/ha: Amaranthus retroflexus, 504 h; for pest or weed control at 80 g/ha: read-out: Post-emergence effect at 80 g/ha against AMARE in %; for pest or weed control at 320 g/ha: read-out: Post-emergence effect at 320 g/ha against AMARE in %
Method in brief: as §1

[8] = test system: Setaria viridis (SETVI); assay: as above; conditions: visual rating after about 3 weeks; for pest or weed control at 320 g/ha: Setaria viridis, 504 h, read-out: Post-emergence effect at 320 g/ha against SETVI in %
Method in brief: as §1

[9] = test system: Digitaria sanguinalis (DIGSA); assay: as above; conditions: visual rating after about 3 weeks; for pest or weed control at 320 g/ha: Digitaria sanguinalis, 504 h, read-out: Post-emergence effect at 320 g/ha against DIGSA in %
Method in brief: as §1

[10] = test system: Lolium rigidum (LOLRI); assay: as above; conditions: 320 g/ha, visual rating after about 3 weeks; for pest or weed control at 320 g/ha: Lolium rigidum, 504 h, read-out: Post-emergence effect at 320 g/ha against LOLRI in %
Method in brief: as §1

[11] = test system: Abutilon theophrasti (ABUTH); assay: as above; conditions: visual rating after about 3 weeks; for pest or weed control at 320 g/ha / pest or weed control at 80 g/ha: Abutilon theophrasti, 504 h; for pest or weed control at 320 g/ha: read-out: Post-emergence effect at 320 g/ha against ABUTH in %; for pest or weed control at 80 g/ha: read-out: Post-emergence effect at 80 g/ha against ABUTH in %
Method in brief: as §1

[12] = test system: Triticum aestivum (TRZAS); assay: Post-emergence crop plant compatibility, greenhouse pot trial
Method: Seeds of monocotyledonous and dicotyledonous weeds and crop plants are placed in sandy loam in plastic or organic planting pots, covered with soil and cultivated in a greenhouse under controlled growth conditions. 2 to 3 weeks after sowing, the trial plants are treated at the one-leaf stage. The compounds of the invention, formulated in the form of wettable powders (WP) or as emulsion concentrates (EC), are then sprayed onto the green parts of the plants as aqueous suspension or emulsion with addition of 0.5% additive at a water application rate equivalent to 600 l/ha. After about 3 weeks of keeping the trial plants in the greenhouse under optimum growth conditions, the effect of the preparations is rated visually in comparison to untreated controls. For example, 100% activity=the plants have died, 0% activity=like control plants.
The observed effects on selected crop plants are reported here in comparison to the untreated controls (values in %). The appendices “a”, “b” and “c” give differentiation by dosage used with otherwise the same useful plants tested.
As shown by results from Tables B1 to B19, inventive compounds of the general formula (I) in the case of post-emergence treatment have good herbicidal efficacy against harmful plants, for example Abutilon theophrasti (ABUTH), Alopecurus myosuroides (ALOMY), Amaranthus retroflexus (AMARE), Avena fatua (AVEFA), Digitaria sanguinalis (DIGSA), Echinochloa crus-galli (ECHCG), Bassia scoparia (KCHSC), Lolium rigidum (LOLRI), Matricaria inodora (MATIN), Pharbitis purpurea (PHBPU), Polygonum convolvulus (POLCO), Setaria viridis (SETVI), Veronica persica (VERPE) and Viola tricolor (VIOTR) at an application rate of 320 g of active substance or less per hectare, and good crop plant compatibility in the case of organisms such as Oryza sativa (ORYSA), Zea mays (ZEAMX), Brassica napus (BRSNW), Glycine max (GLXMA) and Triticum aestivum (TRZAS) at an application rate of 320 g or less per hectare.

[13] = test system: Viola tricolor (VIOTR); assay: Post-emergence herbicidal action, greenhouse pot trial; conditions: Viola tricolor, 504 h, read-out: Post-emergence effect against VIOTR
Method in brief: as §1

[14] = test system: Pharbitis purpurea (PHBPU); assay: as above; conditions: Ipomoea purpurea, 504 h, visual rating after about 3 weeks; for pest or weed control at 320 g/ha: read-out: Post-emergence effect at 320 g/ha against PHBPU in %; for pest or weed control at 80 g/ha: read-out: Post-emergence effect at 80 g/ha against PHBPU in %
Method in brief: as §1

[15] = test system: Veronica persica (VERPE); assay: as above; conditions: visual rating after about 3 weeks; for pest or weed control at 320 g/ha: Veronica persica, 504 h, read-out: Post-emergence effect at 320 g/ha against VERPE in %
Method in brief: as §1

[16] = Echinochloa crus-galli, 504 h, 320 g/ha
[17] = Bassia scoparia, 504 h, 320 g/ha, read-out: Post-emergence effect against KCHSC

Row | SMILES | Post-emergence effect at 80 g/ha against DIGSA in % [9] [%] | pest or weed control at 80 g/ha ([2]; 80 g/ha) [%] | pest or weed control at 320 g/ha ([2]; 320 g/ha) [%] | pest or weed control at 320 g/ha [3, 16] [%] | pest or weed control at 20 g/ha [13] [%] | pest or weed control at 80 g/ha [13] [%] | pest or weed control at 320 g/ha [13] [%] | pest or weed control at 320 g/ha [14] [%] | Post-emergence effect at 80 g/ha against SETVI in % [8] [%] | pest or weed control at 320 g/ha ([8]; 320 g/ha) [%] | pest or weed control at 320 g/ha ([9]; 320 g/ha) [%] | pest or weed control at 320 g/ha ([11]; 320 g/ha) [%] | pest or weed control at 320 g/ha [15] [%] | pest or weed control at 80 g/ha ([4]; 80 g/ha) [%] | pest or weed control at 320 g/ha ([4]; 320 g/ha) [%] | pest or weed control at 80 g/ha [14] [%] | pest or weed control at 80 g/ha ([7]; 80 g/ha) [%] | pest or weed control at 320 g/ha ([7]; 320 g/ha) [%] | pest or weed control at 320 g/ha [1, 17] [%] | pest or weed control at 320 g/ha [5] [%] | other results
1 | COC(=O)CCOC(=O)C(Oc1nn(-c2ncccc2F)c(-c2ccc(F)nc2)c1Br)SC (racemic) [Example I-32] | 90 | – | – | – | – | – | – | – | – | – | – | – | – | – | – | – | – | – | – | – | Post-emergence effect against KCHSC ([1]; 80 g/ha): 80%; Post-emergence effect against KCHSC ([1]; 320 g/ha): 90%; Post-emergence effect at 80 g/ha against MATIN in % ([2]; 80 g/ha): 80%; Post-emergence effect at 320 g/ha against MATIN in % ([2]; 320 g/ha): 80%; Post-emergence effect at 320 g/ha against ECHCG in % ([3]; 320 g/ha): 90%; Post-emergence effect at 80 g/ha against POLCO in % ([4]; 80 g/ha): 80%; Post-emergence effect at 320 g/ha against POLCO in % ([4]; 320 g/ha): 90%; Post-emergence effect at 320 g/ha against AVEFA in % [5]: 90%; Post-emergence effect at 320 g/ha against ALOMY in % [6]: 90%; Post-emergence effect at 80 g/ha against AMARE in % ([7]; 80 g/ha): 80%; Post-emergence effect at 320 g/ha against AMARE in % ([7]; 320 g/ha): 80%; Post-emergence effect at 320 g/ha against SETVI in % ([8]; 320 g/ha): 80%; Post-emergence effect at 320 g/ha against DIGSA in % ([9]; 320 g/ha): 90%; Post-emergence effect at 320 g/ha against LOLRI in % [10]: 80%; Post-emergence effect at 80 g/ha against ABUTH in % ([11]; 80 g/ha): 80%; Post-emergence effect at 320 g/ha against ABUTH in % ([11]; 320 g/ha): 90%; Post-emergence effect against TRZAS (crop plant compatibility) ([12]; 20 g/ha, post-emergence, in comparison to untreated controls): 0%
2 | CCOC(=O)C(Oc1nn(-c2cc(F)ccc2F)c(-c2cncc(F)c2)c1Br)SC (stereo not shown) [Example I-03, ethyl {[4-bromo-1-(2,5-difluorophenyl)-5-(5-fluoropyridin-3-yl)-1H-pyrazol-3-yl]oxy}(methylsulfanyl)acetate] | – | 80 | 90 | 90 | 80 | 90 | 90 | 80 | 80 | 90 | 80 | 80 | – | – | – | – | – | – | – | – | Post-emergence effect at 320 g/ha against TRZAS in % ([12]; in vivo): 20%
3 | COC(=O)C(Oc1nn(-c2cc(F)ccc2F)c(-c2cncc(F)c2)c1C1CC1)SC (stereo not shown) [Example I-08] | – | – | 80 | 80 | 90 | 90 | 90 | 90 | – | 90 | – | – | 90 | 90 | 90 | 80 | 80 | 80 | – | – | Post-emergence effect at 80 g/ha against VERPE in % ([15]; 80 g/ha): 80%
4 | CCOC(=O)C(Oc1nn(-c2ncccc2F)c(-c2cncc(F)c2)c1Br)SC (stereo not shown) [Example I-39] | 80 | 80 | 90 | 90 | 80 | 80 | 90 | 90 | 90 | 90 | 90 | 90 | 80 | 80 | 80 | 80 | 80 | 90 | 90 | 90 | Post-emergence effect at 20 g/ha against KCHSC in % ([1]; 20 g/ha, visual rating after about 3 weeks): 80%; pest or weed control at 80 g/ha ([1]; Bassia scoparia, 504 h, 80 g/ha, read-out: Post-emergence effect against KCHSC): 90%; pest or weed control at 80 g/ha ([3]; Echinochloa crus-galli, 504 h, 80 g/ha, read-out: Post-emergence effect at 80 g/ha against ECHCG in %): 90%; Post-emergence effect at 20 g/ha against AMARE in % [7]: 80%; pest or weed control at 320 g/ha [10]: 90%; Post-emergence action at 20 g/ha against ABUTH in % ([11]; 20 g/ha): 80%; pest or weed control at 80 g/ha ([11]; 80 g/ha): 90%
5 | CSC(Oc1nn(-c2ncccc2F)c(-c2cncc(F)c2)c1C1CC1)C(=O)O (stereo not shown) [Example I-44] | – | 80 | 90 | 90 | 90 | 90 | 90 | – | – | 80 | – | 90 | 90 | – | 80 | – | 90 | 90 | 90 | 90 | Post-emergence effect at 20 g/ha against AMARE in % [7]: 80%
6 | CCOC(=O)C(Oc1nn(-c2ccccc2F)c(-c2ccc(F)nc2)c1C(F)(F)F)SC (stereo not shown) [Example I-46] | – | – | 90 | 90 | 80 | 80 | 90 | – | – | 80 | 80 | 80 | 80 | – | 80 | – | 80 | 80 | – | – | pest or weed control at 320 g/ha [10]: 100%; pest or weed control at 80 g/ha ([11]; 80 g/ha): 80%
